According to the supplement of paper PMC10331698:
± gives the standard deviation of the averaged measurements.

How the values were obtained:
Assay in all cases: level (log10 ratio to DMSO vehicle control); higher = higher biomarker level / cell amount than vehicle control
Conditions in all cases: in DMSO
[1] = compound: CC(C)(C)C(=O)CC(=O)C(F)(F)C(F)(F)C(F)(F)F [(Heptafluorobutanoyl)pivaloylmethane]
Description: (§1)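 BioMAP Diversity Plus panel of 12 human primary cell co-culture systems (3C, 4H, LPS, SAg, BT, BF4T, BE3C, CASM3C, HDF3CGF, KF3CT, MyoF, Mphg). Compounds were added 1 h before stimulation and left for 24 h (MyoF 48 h; BT 72 h for soluble read-outs or 6 d for IgG). Biomarkers were read by ELISA, cytotoxicity by SRB, PBMC viability and proliferation by Alamar Blue. Each well value was divided by the mean of 8 DMSO control wells on the same plate and log10 transformed; duplicate blinded samples were tested at 4 concentrations.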

[2] = compound: CNS(=O)(=O)C(F)(F)C(F)(F)C(F)(F)C(F)(F)C(F)(F)C(F)(F)C(F)(F)C(F)(F)F [N-Methylperfluorooctanesulfonamide]
Description: as §1

Azathioprine = compound: Cn1cnc([N+](=O)[O-])c1Sc1ncnc2[nH]cnc12 [Azathioprine]
Description: as §1

[3] = compound: FC(F)(F)C(F)(F)C(F)(F)C(F)(F)C(F)(F)C(F)(F)C(F)(F)CCI [1-Iodo-1H,1H,2H,2H-perfluorononane]
Description: as §1

[4] = compound: O=C(O)CCC(F)(F)C(F)(F)C(F)(F)C(F)(F)C(F)(F)F [2H,2H,3H,3H-Perfluorooctanoic acid]
Description: as §1

[5] = compound: O=P(O)(O)CCC(F)(F)C(F)(F)C(F)(F)C(F)(F)C(F)(F)C(F)(F)C(F)(F)C(F)(F)F [((Perfluorooctyl)ethyl)phosphonic acid]
Description: as §1

Row | Test System | level (log10) ([1]; 6700 nM) | level (log10) ([1]; 20000 nM) | level (log10) ([1]; 60000 nM) | level (log10) ([2]; 6700 nM) | level (log10) ([2]; 20000 nM) | level (log10) ([2]; 60000 nM) | level (log10) (Azathioprine; 1400 nM) | level (log10) (Azathioprine; 4200 nM) | level (log10) (Azathioprine; 13000 nM) | level (log10) (Azathioprine; 38000 nM) | level (log10) ([3]; 6700 nM) | level (log10) ([3]; 20000 nM) | level (log10) ([4]; 6700 nM) | level (log10) ([4]; 20000 nM) | level (log10) ([4]; 60000 nM) | level (log10) ([5]; 6700 nM) | level (log10) ([5]; 20000 nM) | level (log10) ([5]; 60000 nM)
1 | CASM3C:CD142/Tissue Factor | -0.017 ± 0.0057 | -0.0275 ± 0.0035 | -0.037 ± 0.027 | -0.025 ± 0.037 | -0.0115 ± 0.005 | 0.019 ± 0.011 | -0.0115 ± 0.015 | -0.026 ± 0.034 | -0.0345 ± 0.021 | -0.0295 ± 0.025 | 0.0155 ± 0.049 | -0.055 ± 0.0028 | -0.0115 ± 0.022 | -0.0505 ± 0.0092 | -0.0095 ± 0.022 | -0.0235 ± 0.019 | -0.006 ± 0.0099 | 0.046 ± 0.079
2 | MyoF:CD106/VCAM-1 | -0.011 ± 0.035 | -0.0065 ± 0.028 | 0.005 ± 0.0085 | 0.0065 ± 0.0078 | -0.0035 ± 0.016 | -0.0155 ± 0.012 | -0.01 ± 0.0099 | 0.008 | -0.0165 ± 0.005 | -0.022 ± 0.014 | -0.007 ± 0.023 | -0.003 ± 0.0014 | -0.0015 ± 0.019 | -0.0115 ± 0.021 | 0.0005 ± 0.012 | -0.013 ± 0.027 | -0.0105 ± 0.015 | -0.079 ± 0.03
3 | MyoF:bFGF | 0.002 ± 0.0028 | 0.0065 ± 0.0035 | 0.021 ± 0.0071 | 0 ± 0.014 | -0.0085 ± 0.033 | 0.005 ± 0.033 | 0.001 ± 0.016 | 0.003 ± 0.0071 | -0.015 ± 0.016 | 0.01 ± 0.0071 | 0.01 ± 0.0014 | 0.021 ± 0.017 | -0.013 ± 0.017 | -0.011 ± 0.0085 | -0.008 ± 0.021 | -0.0245 ± 0.018 | -0.024 ± 0.018 | -0.0585 ± 0.037
4 | lMphg:SRB | -0.001 ± 0.0057 | -0.006 ± 0.0028 | 0.008 ± 0.016 | -0.021 ± 0.021 | -0.0155 ± 0.00071 | -0.0265 ± 0.00071 | -0.0055 ± 0.0078 | -0.0055 ± 0.005 | -0.014 ± 0.0085 | -0.0365 ± 0.0021 | -0.002 ± 0.0071 | 0.0065 ± 0.005 | -0.0025 ± 0.0035 | 0.001 ± 0.0014 | 0.007 ± 0.0085 | 0 ± 0.0071 | -0.0105 ± 0.0078 | -0.044 ± 0.0085
5 | lMphg:CXCL8/IL-8 | 0.002 ± 0.02 | 0.006 ± 0.034 | 0.014 ± 0.064 | -0.0025 ± 0.0078 | 0.112 ± 0.022 | 0.118 ± 0.044 | -0.0045 ± 0.047 | -0.042 ± 0.021 | 0.0375 ± 0.0064 | 0.0825 ± 0.019 | 0.007 ± 0.013 | 0.0695 ± 0.0078 | -0.017 ± 0.023 | 0.066 ± 0.04 | 0.115 ± 0.018 | -0.0105 ± 0.025 | 0.0115 ± 0.028 | 0.148 ± 0.084
6 | HDF3CGF:TIMP-2 | -0.0005 ± 0.019 | -0.006 ± 0.013 | -0.019 ± 0.016 | -0.094 ± 0.0057 | -0.136 ± 0.046 | -0.049 ± 0.044 | -0.0175 ± 0.00071 | -0.023 ± 0.048 | 0.0315 ± 0.056 | 0.049 ± 0.018 | 0.0165 ± 0.011 | 0.0055 ± 0.0064 | -0.0325 ± 0.021 | -0.04 ± 0.023 | 0.005 ± 0.047 | 0.0645 ± 0.013 | 0.0485 ± 0.0021 | -0.029 ± 0.018
7 | CASM3C:PAI-I | -0.004 ± 0.0028 | -0.0035 ± 0.0064 | 0.003 ± 0.0099 | 0.011 ± 0.0042 | 0.0075 ± 0.012 | 0.0085 ± 0.012 | -0.0045 ± 0.0021 | 0.007 ± 0.0057 | 0.007 ± 0.0014 | 0.01 ± 0.0042 | 0.0015 ± 0.00071 | 0.0035 ± 0.00071 | -0.0015 ± 0.013 | -0.0045 ± 0.019 | -0.012 ± 0.0099 | -0.0035 ± 0.011 | 0.003 ± 0.0071 | 0.0015 ± 0.0078
8 | HDF3CGF:CXCL9/MIG | 0.0025 ± 0.012 | 0 ± 0.02 | -0.025 ± 0.033 | -0.0065 ± 0.03 | 0.0105 ± 0.011 | -0.0205 ± 0.011 | -0.002 ± 0.018 | -0.0215 ± 0.013 | -0.026 ± 0.02 | -0.0645 ± 0.005 | -0.035 ± 0.0071 | -0.0875 ± 0.049 | -0.01 ± 0.047 | -0.019 ± 0.047 | -0.036 ± 0.044 | 0.102 ± 0.017 | 0.0505 ± 0.018 | -0.0155 ± 0.061
